Molecular target: QPCTL (Homo sapiens (Human), UniProt Q9NXS2)
Assay: QPCTL inhibition, SensoLyte Green Glutaminyl Cyclase Activity Assay
Assay type: biochemical
Conditions: 0.8 nM 2x enzyme solution, 45 min at 37° C., 50 mM Tris pH 8.0, 1% DMSO
Procedure: Preparation of working solution: 2×Glutaminyl Cyclase substrate was diluted in assay buffer to […]. 2×enzyme solution and QPCTL was diluted in assay buffer to 0.8 nM. Glutaminyl Cyclase Developer was diluted in assay buffer to 1×(containing 10 mM 1-Benzyl-Imidazole). Serial dilution of test compounds was performed in DMSO. The final DMSO concentration in 100 μl reaction was 1%. The assay buffer was 50 mM Tris, pH 8.0, 0.01% BSA.
Procedure: 50 μL of 2×Glutaminyl Cyclase substrate solution was added into the assay plate followed by 50 μL of 2×enzyme solution. The plate was centrifuged for 1 min at 1000 rmp. Next the plate was incubated for 45 minutes at 37° C. This was followed by the additional of 50 μL of the prepared Glutaminyl Cyclase developer and incubated for additional 30 min at 37° C. Results were read on SpectraMax Paradigm detecting with emission at Ex/Em=490 nm/520 nm.
A Z′ value was calculated for each assay plate. The Z′ value must be >0.5 or the plate was disqualified. […] Results were calculated using GraphPad Prism 7 software is used for IC50 determination.

Chain of QPCTL (Q9NXS2 whole entry, species assumed): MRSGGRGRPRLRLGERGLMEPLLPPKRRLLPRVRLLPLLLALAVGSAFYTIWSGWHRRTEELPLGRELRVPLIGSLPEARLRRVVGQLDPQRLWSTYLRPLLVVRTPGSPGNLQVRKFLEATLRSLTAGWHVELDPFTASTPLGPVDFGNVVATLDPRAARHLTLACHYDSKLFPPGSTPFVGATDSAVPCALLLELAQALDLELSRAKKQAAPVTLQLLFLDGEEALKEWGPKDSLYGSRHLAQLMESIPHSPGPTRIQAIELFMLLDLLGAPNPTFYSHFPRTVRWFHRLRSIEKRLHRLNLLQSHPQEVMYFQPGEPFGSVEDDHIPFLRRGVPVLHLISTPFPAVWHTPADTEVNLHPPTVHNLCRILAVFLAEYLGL

SMILES	IC50
O=C1[C@H](C2COC2)[C@H](c2c(F)cc(OCCC(F)F)cc2F)N1c1ccc2[nH]cnc2c1 (single isomer, unassigned) [Compound 44B]	< 2 nM
O=C1[C@H](C2CC2)[C@H](c2ccc(OCCC(F)F)nc2)N1c1ccc2[nH]cnc2c1 (single isomer, unassigned) [Compound 45B]	< 2 nM
O=C1[C@@H](C2CC2)[C@@H](c2c(F)cc(C3CC3)cc2F)N1c1ccc2[nH]cnc2c1 (single isomer, unassigned) [Compound 69A]	25 to 1000 nM
C[C@@H]1C(=O)N(c2ccc3[nH]cnc3c2)[C@@H]1c1c(F)cc(-c2cnn(C)c2)cc1F (single isomer, unassigned) [Compound 13A]	> 1000 nM
O=C1[C@@H](C2CC2)[C@@H](c2c(F)cc(-c3cnccn3)cc2F)N1c1ccc2[nH]cnc2c1 [Compound 53A]	> 1000 nM
Cc1ccc(-c2ccc([C@@H]3[C@H](C4CC4)C(=O)N3c3ccc4[nH]cnc4c3)c(C)n2)nn1 (single isomer, unassigned) [Compound 71A]	25 to 1000 nM
O=C1[C@@H](C2CC2)[C@@H](c2c(F)cc(OCCC(F)F)cc2F)N1c1ccc2[nH]cnc2c1 (single isomer, unassigned) [Compound 18A]	> 1000 nM
O=C1[C@H](C2CC2)[C@H](c2c(F)cc(C3CC3)cc2F)N1c1ccc2[nH]cnc2c1 (single isomer, unassigned) [Compound 69B]	< 2 nM
Cc1cc(-c2ccc(C(F)(F)F)nn2)ccc1[C@@H]1[C@H](C2CC2)C(=O)N1c1ccc2[nH]cnc2c1 (single isomer, unassigned) [Compound 67A]	25 to 1000 nM
C[C@H]1C(=O)N(c2ccc3[nH]cnc3c2)[C@H]1c1c(F)cc(N2CCC(F)(F)C2)cc1F (racemic) [Compound 12CR, (cis and racemic)-1-(1H-benzo[d]imidazol-5-yl)-4-(4-(3,3-difluoropyrrolidin-1-yl)-2,6-difluorophenyl)-3-methylazetidin-2-one]	2 to 25 nM
O=C1[C@@H](O)[C@H](c2c(F)cc(-c3cnn(C(F)F)c3)cc2F)N1c1ccc2[nH]cnc2c1 (racemic) [Compound 25TR]	2 to 25 nM
Cc1cc(-n2cnc(C(F)(F)F)c2)ccc1[C@H]1[C@@H](C2CC2)C(=O)N1c1ccc2[nH]cnc2c1 (single isomer, unassigned) [Compound 74B]	< 2 nM
O=C1[C@H](C2CC2)[C@H](c2c(F)cc(-n3cc(C(F)(F)F)nn3)cc2F)N1c1ccc2[nH]cnc2c1 (single isomer, unassigned) [Compound 59B]	< 2 nM
O=C1[C@@H](C2COC2)[C@@H](c2c(F)cc(-c3cnn(C(F)(F)F)c3)cc2F)N1c1ccc2[nH]cnc2c1 (single isomer, unassigned) [Compound 42A]	25 to 1000 nM
C[C@@H]1C(=O)N(c2ccc3[nH]cnc3c2)[C@@H]1c1c(F)cc(-c2cnn(C(F)F)c2)cc1F (single isomer, unassigned) [Compound 17A]	25 to 1000 nM
C[C@@H]1C(=O)N(c2ccc3[nH]cnc3c2)[C@@H]1c1c(F)cc(N2CCC(F)(F)CC2)cc1F (single isomer, unassigned) [Compound 30A]	> 1000 nM
O=C1[C@H](O)[C@H](c2c(F)cc(-c3cnn(C(F)(F)F)c3)cc2F)N1c1ccc2[nH]cnc2c1 (racemic) [Compound 16CR]	< 2 nM
CC1(C)C(=O)N(c2ccc3[nH]cnc3c2)C1c1c(F)cc(OCCC(F)F)cc1F (racemic) [Compound 2, 1-(1H-benzo[d]imidazol-5-yl)-4-(4-(3,3-difluoropropoxy)-2,6-difluorophenyl)-3,3-dimethylazetidin-2-one]	> 1000 nM
CC[C@H]1C(=O)N(c2ccc3[nH]cnc3c2)[C@H]1c1c(F)cc(-c2cnn(C(F)(F)F)c2)cc1F (single isomer, unassigned) [Compound 51B]	< 2 nM
O=C1[C@@H](O)[C@H](c2c(F)cc(OCCC(F)F)cc2F)N1c1ccc2[nH]cnc2c1 (racemic) [Compound 8TR, (trans and racemic)-1-(1H-benzo[d]imidazol-5-yl)-4-(4-(3,3-difluoropropoxy)-2,6-difluorophenyl)-3-hydroxyazetidin-2-one]	25 to 1000 nM
O=C1[C@@H](C2CC2)[C@@H](c2ccc(-c3cnn(C(F)(F)F)c3)nc2)N1c1ccc2[nH]cnc2c1 (single isomer, unassigned) [Compound 43A]	25 to 1000 nM
Cc1cc(-c2cnn(C(F)(F)F)c2)ccc1[C@H]1[C@@H](C2CC2)C(=O)N1c1ccc2[nH]cnc2c1 (single isomer, unassigned) [Compound 56B]	< 2 nM

SMILES	IC50
O=C1[C@H](C2CC2)[C@H](c2c(F)cc(-n3cc(C(F)(F)F)cn3)cc2F)N1c1ccc2[nH]cnc2c1 (single isomer, unassigned) [Compound 58B]	< 2 nM
C=C1C(=O)N(c2ccc3[nH]cnc3c2)[C@@H]1c1c(F)cc(OCCC(F)F)cc1F (single isomer, unassigned) [Compound 22A]	25 to 1000 nM
C[C@H]1C(=O)N(c2ccc3[nH]cnc3c2)[C@H]1c1c(F)cc(OCCC(F)F)cc1F (single isomer, unassigned) [Compound 7B]	< 2 nM
CC1C(=O)N(c2ccc3[nH]cnc3c2)C1c1c(F)cc(-c2cnn(C(F)(F)F)c2)cc1F (racemic) [Compound 14, (cis and racemic)-1-(1H-benzo[d]imidazol-5-yl)-4-(2,6-difluoro-4-(1-(trifluoromethyl)-1H-pyrazol-4-yl)phenyl)-3-methyl azetidin-2-one]	2 to 25 nM
C[C@@H]1C(=O)N(c2ccc3[nH]cnc3c2)[C@H]1c1c(F)cc(OCCC(F)F)cc1F (single isomer, unassigned) [Compound 7A]	25 to 1000 nM
O=C1[C@H](C2CC2)[C@H](c2c(F)cc(-c3cnccn3)cc2F)N1c1ccc2[nH]cnc2c1 (single isomer, unassigned) [Compound 53B]	< 2 nM
C[C@@H]1C(=O)N(c2ccc3[nH]cnc3c2)[C@@H]1c1c(F)cc(OCC(C)(C)O)cc1F (single isomer, unassigned) [Compound 32A]	25 to 1000 nM
Cn1cc(-c2cc(F)c(C3CC(=O)N3c3ccc4[nH]cnc4c3)c(F)c2)cn1 (racemic) [Compound 9, 1-(1H-benzo[d]imidazol-5-yl)-4-(2,6-difluoro-4-(1-methyl-1H-pyrazol-4-yl)phenyl)azetidin-2-one]	25 to 1000 nM
Cc1nc(-c2cnn(C(F)(F)F)c2)ccc1[C@@H]1[C@H](C2CC2)C(=O)N1c1ccc2[nH]cnc2c1 (single isomer, unassigned) [Compound 68A]	25 to 1000 nM
Cn1cc(-c2cc(F)c([C@H]3[C@@H](O)C(=O)N3c3ccc4[nH]cnc4c3)c(F)c2)cn1 (single isomer, unassigned) [Compound 15B]	< 2 nM
C[C@H]1C(=O)N(c2ccc3[nH]cnc3c2)[C@H]1c1c(F)cc(-c2cnn(C(F)(F)F)c2)cc1F (single isomer, unassigned) [Compound 14B]	< 2 nM
O=C1[C@H](C2CC2)[C@H](c2c(F)cc(-c3ccn(C(F)(F)F)n3)cc2F)N1c1ccc2[nH]cnc2c1 (single isomer, unassigned) [Compound 47B]	< 2 nM
O=C1[C@H](C2COC2)[C@H](c2c(F)cc(-c3cnn(C(F)(F)F)c3)cc2F)N1c1ccc2[nH]cnc2c1 (single isomer, unassigned) [Compound 42B]	< 2 nM
O=C1[C@@H](O)[C@@H](c2c(F)cc(OCCC(F)F)cc2F)N1c1ccc2[nH]cnc2c1 (single isomer, unassigned) [Compound 8A]	> 1000 nM
O=C1[C@H](C2CC2)[C@H](c2ccc(-c3cnn(C(F)(F)F)c3)nc2)N1c1ccc2[nH]cnc2c1 (single isomer, unassigned) [Compound 43B]	< 2 nM
C[C@H]1C(=O)N(c2ccc3[nH]cnc3c2)[C@H]1c1c(F)cc(-n2cc(C(F)(F)F)cn2)cc1F (racemic) [Compound 28CR, (cis and racemic)-1-(1H-benzo[d]imidazol-5-yl)-4-(2,6-difluoro-4-(4-(trifluoromethyl)-1H-pyrazol-1-yl)phenyl)-3-methylazetidin-2-one]	2 to 25 nM
CC[C@@H]1C(=O)N(c2ccc3[nH]cnc3c2)[C@@H]1c1c(F)cc(-c2cnn(C(F)(F)F)c2)cc1F (single isomer, unassigned) [Compound 51A]	25 to 1000 nM
Cc1noc(C)c1-c1cc(F)c([C@H]2[C@@H](C3CC3)C(=O)N2c2ccc3[nH]cnc3c2)c(F)c1 (single isomer, unassigned) [Compound 64B]	2 to 25 nM
C[C@@H]1C(=O)N(c2ccc3[nH]cnc3c2)[C@H]1c1c(F)cc(-n2cc(C(F)(F)F)cn2)cc1F (racemic) [Compound 28TR, (trans and racemic)-1-(1H-benzo[d]imidazol-5-yl)-4-(2,6-difluoro-4-(4-(trifluoromethyl)-1H-pyrazol-1-yl)phenyl)-3-methylazetidin-2-one]	2 to 25 nM
Cc1nc(-c2ccc(C(F)(F)F)nn2)ccc1[C@H]1[C@@H](C2CC2)C(=O)N1c1ccc2[nH]cnc2c1 (single isomer, unassigned) [Compound 70B]	< 2 nM
Cc1cc(-c2cnn(C(F)(F)F)c2)ncc1[C@H]1[C@@H](C2CC2)C(=O)N1c1ccc2[nH]cnc2c1 (single isomer, unassigned) [Compound 66B]	< 2 nM
O=C1[C@H](C2CC2)[C@H](c2c(F)cc(-c3cn(C(F)(F)F)nn3)cc2F)N1c1ccc2[nH]cnc2c1 (single isomer, unassigned) [Compound 50B]	< 2 nM
